Assay results published in patent US6251893A, “Bicyclic piperidine and piperazine compounds having 5-HT6 receptor affinity” (NPS Allelix Corp., priority 1998, dated 2001).

What was measured:
5-HT2A receptor = 5-HT2A receptor (Homo sapiens, UniProt P28223); assay: Binding to 5-HT2A receptor (selectivity); design: dose or concentration left out as unconfirmed; conditions: selectivity versus 5-HT6; read-out: percent inhibition for the 5-HT2A receptor
5HT2C receptor = target: T1, 5HT2C receptor (Homo sapiens, UniProt P28335); assay: Binding to 5HT2C receptor (selectivity); conditions: selectivity versus 5-HT6; read-out: percent inhibition for the 5HT2C receptor
T1 sequence (P28335 33-458): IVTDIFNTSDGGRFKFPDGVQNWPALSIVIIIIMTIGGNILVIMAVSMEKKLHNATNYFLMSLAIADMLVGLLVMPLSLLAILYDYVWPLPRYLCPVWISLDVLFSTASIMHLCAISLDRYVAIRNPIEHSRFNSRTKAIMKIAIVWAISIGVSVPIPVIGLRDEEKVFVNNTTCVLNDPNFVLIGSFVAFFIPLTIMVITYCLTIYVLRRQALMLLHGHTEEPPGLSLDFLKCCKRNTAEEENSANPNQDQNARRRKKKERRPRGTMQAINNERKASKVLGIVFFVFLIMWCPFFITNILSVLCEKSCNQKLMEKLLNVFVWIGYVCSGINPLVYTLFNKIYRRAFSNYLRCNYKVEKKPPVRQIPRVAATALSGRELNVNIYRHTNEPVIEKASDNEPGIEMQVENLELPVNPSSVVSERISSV

5-HT7 receptor = 5-HT7 receptor (Homo sapiens, UniProt P34969); assay: Binding to 5-HT7 receptor (selectivity); design: dose or concentration left out as unconfirmed; conditions: selectivity versus 5-HT6; read-out: percent inhibition for the 5-HT7 receptor
human 5HT6 receptor [1] = target: T2, human 5HT6 receptor (Homo sapiens, UniProt P50406); assay: Binding affinity for the 5-HT6 receptor (3H-LSD displacement); design: expressed in transfected cells; conditions: 100 nM test compound; 3H-LSD (2 nM); 60 minute incubation at 37° C; read-out: percent inhibition of radioligand binding for the 5-HT6 receptor
Procedure: Binding Affinity for the 5-HT6 Receptor
The assay protocol generally entailed the incubation of membranes prepared from cells expressing the 5-HT6 receptor with ^3 H-LSD (2 nM). Increasing levels of the test compound were incubated with the radioligand and the membrane homogenates prepared from the recombinant cells. After a 60 minute incubation at 37° C., the incubation was terminated by vacuum filtration. The filters were washed with buffer and the filters were counted for radioactivity using liquid scintillation spectrometry. […] Concentrations ranging from 10^-11 M to 10^-5 M of the test compound were evaluated. […] Affinity for the 5-HT6 receptor is expressed as the amount (in percent) of binding of the radioligand that is inhibited in the presence of 100 nM of test compound. A greater percent inhibition indicates greater affinity for the 5-HT6 receptor.

human 5HT6 receptor [2] = target: T2, human 5HT6 receptor; assay: Functional assay: reversal of serotonin-stimulated adenyl cyclase activity (cAMP) in HEK 293 cells stably expressing the human 5HT6 receptor; type: cell-based; design: cAMP functional assay in whole cells; conditions: 100 nM and 10 μM test compound with serotonin
Procedure: The 5HT6 receptor responds to serotonin and other agonists by increasing adenyl cyclase mediated production of cyclic AMP. Particular test compounds were assayed for their effect on adenyl cyclase activity using the procedure described below.
Compounds acting as antagonists at the 5HT6 receptor will antagonize the agonist effect of serotonin and thus, will block the serotonin-inducedincrease in adenyl cyclase activity.
HEK 293 cells stably expressing the human 5HT6 receptor were plated in 6 well plates in DMEM (Dulbecco's Modified Eagle Medium)/F12 (Nutrient Mixture F12-Ham) media with 10% FCS (fetal calf serum) and G418 (Geneticen Disulfate, 500 ug/ml), and incubated at 37° C. in a CO2 incubator. The cells were allowed to grow to about 70% confluence before use in the assay.
The culture medium of each well was removed, and the wells were washed once with serum free media. Then 2 ml of SFM+IBMX medium (SFM with 0.5 mM IBMX, 3-isobutyl-1-methylxanthine, 0.1% ascorbic acid and 10 mM pargyline) was added to each well and the wells were incubated at 37° C. for 10 min. Following incubation, the SFM+IBMX medium was removed from each well and fresh SFM+IBMX media was added to the wells separately with one of a) serotonin (1 μM final concentration); b) test compound (100 nM and 10 μM, to test for agonist activity); and c) test compound (100 nM and 10 μM) along with serotonin ([…], to test for antagonist activity). Basal adenyl cyclase activity was determined from wells with only SFM+IBMX media added.
The cells were then incubated at 37° C. for 30 minutes in a CO2 incubator. Following incubation, the media were removed from each well. The wells were washed once with 1 ml of PBS (phosphate buffered saline). Each well was then treated with 1 mL cold 95% ethanol:5 mM EDTA (2:1) at 4° C. for 1 hour. The cells from each well were then scraped and transferred into individual Eppendorf tubes. The tubes were centrifuged for 5 minutes at 4° C., and the supernatants were transferred to new Eppendorf tubes and stored at 4° C. The pellets were discarded and the supernatants were stored at 4° C. until assayed for cAMP concentration. cAMP content for each extract was determined in duplicate by EIA (enzyme-immunoassay) using the Amersham Biotrak cAMP EIA kit (Amersham RPN 225). Final results were expressed as % basal response for agonists and % reversal of serotonin response for antagonists.
The total stimulation of adenyl cyclase by serotonin (So) was determined as the difference in concentration of cAMP in the serotonin-treated cells (Cd) and the basal-treated cells (Cf).
The net stimulation (S) of basal adenyl cyclase by an agonist test compound was determined as the difference in cAMP concentration in the drug-treatedcell (C) and the basal-treated cells (Cf).
The net stimulation (Ss) of basal adenyl cyclase by serotonin in the presence of an antagonist test compound was determined as the difference in cAMP concentration in the serontonin-drug-treated cells (Cs) and the basal-treated cells (Cf).
The ability of the antagonist test compound to reverse the serotonin stimuation of adenyl cyclase activity (% reversal, % R) was determined by the formula: […]

Chain of 5-HT2A receptor (P28223 whole entry): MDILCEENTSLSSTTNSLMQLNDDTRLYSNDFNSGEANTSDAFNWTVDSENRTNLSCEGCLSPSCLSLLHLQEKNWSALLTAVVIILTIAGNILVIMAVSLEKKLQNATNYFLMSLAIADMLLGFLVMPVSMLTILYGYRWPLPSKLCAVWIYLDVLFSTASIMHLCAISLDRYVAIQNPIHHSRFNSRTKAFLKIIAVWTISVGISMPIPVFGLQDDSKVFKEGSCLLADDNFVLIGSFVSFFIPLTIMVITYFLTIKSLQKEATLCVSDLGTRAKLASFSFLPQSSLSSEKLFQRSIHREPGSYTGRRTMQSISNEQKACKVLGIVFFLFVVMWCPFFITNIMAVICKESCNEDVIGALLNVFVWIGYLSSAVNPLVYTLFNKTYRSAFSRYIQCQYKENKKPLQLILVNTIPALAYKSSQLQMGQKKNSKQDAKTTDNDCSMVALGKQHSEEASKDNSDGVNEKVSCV
Chain of 5-HT7 receptor (P34969 whole entry): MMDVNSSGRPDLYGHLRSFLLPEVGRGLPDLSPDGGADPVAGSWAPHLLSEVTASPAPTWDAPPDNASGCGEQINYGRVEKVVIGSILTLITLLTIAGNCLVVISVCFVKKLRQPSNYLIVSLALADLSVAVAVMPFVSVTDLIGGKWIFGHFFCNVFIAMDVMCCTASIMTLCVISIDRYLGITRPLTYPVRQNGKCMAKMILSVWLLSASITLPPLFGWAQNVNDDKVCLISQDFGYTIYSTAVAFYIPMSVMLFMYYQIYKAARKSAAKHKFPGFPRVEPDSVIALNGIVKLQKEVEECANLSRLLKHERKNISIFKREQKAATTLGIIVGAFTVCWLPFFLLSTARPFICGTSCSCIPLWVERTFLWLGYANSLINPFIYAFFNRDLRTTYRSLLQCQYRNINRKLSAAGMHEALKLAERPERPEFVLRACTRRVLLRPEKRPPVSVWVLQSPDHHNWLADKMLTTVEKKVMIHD
T2 sequence (P50406 whole entry): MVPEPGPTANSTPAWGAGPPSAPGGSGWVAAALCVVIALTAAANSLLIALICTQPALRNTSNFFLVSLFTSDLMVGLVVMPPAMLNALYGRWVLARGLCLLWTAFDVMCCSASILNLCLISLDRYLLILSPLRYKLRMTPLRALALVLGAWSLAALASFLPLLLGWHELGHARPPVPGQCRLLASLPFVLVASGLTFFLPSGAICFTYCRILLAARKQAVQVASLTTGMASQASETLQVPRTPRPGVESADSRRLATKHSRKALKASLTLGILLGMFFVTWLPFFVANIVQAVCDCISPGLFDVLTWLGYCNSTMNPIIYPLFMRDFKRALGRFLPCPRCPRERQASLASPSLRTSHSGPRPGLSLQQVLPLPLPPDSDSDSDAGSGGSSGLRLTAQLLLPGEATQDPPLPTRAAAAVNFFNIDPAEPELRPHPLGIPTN

Row | Compound | inhibition (5-HT2A receptor) [%] | inhibition at 0.1 µM (5HT2C receptor) [%] | inhibition (5-HT7 receptor) [%] | inhibition at 0.1 µM (human 5HT6 receptor [1]) [%] | reversal of serotonin stimulation of adenyl cyclase (5-HT6 receptor antagonism) (human 5HT6 receptor [2])
1 | O=S(=O)(c1cccc2ccccc12)n1cc(N2CCN3CCCC3C2)c2ccccc21 (racemic) [Example 6b, 3-[(6-R,S)-1,4-Diaza[4.3. 0]bicyclonon-4-yl]-1-(1-naphthalenesulfonyl)indole] | < 20 | < 20 | < 20 | > 80 | able to reverse the serotonin stimulation of adenyl cyclase
2 | O=S(=O)(c1ccccc1)n1cc(N2CCN3CCCC3C2)c2ccccc21 (racemic) [Example 6j, 3-[(6-R,S)-1,4-Diaza[4.3.0]bicyclonon-4-yl]-1-(phenylsulfonyl)indole] | < 20 | < 20 | < 20 | > 80 | able to reverse the serotonin stimulation of adenyl cyclase
3 | O=S(=O)(c1ccccc1)n1cc(C2=CCN3CCCC3C2)c2cc(F)ccc21 (racemic) [Example 6x, 5-Fluoro-3-[(8a-R,S)-1,2,3,5,8,8a-hexahydro-7-indolizinyl]-1-phenylsulfonylindole] | < 20 | < 20 | < 20 | > 80 | able to reverse the serotonin stimulation of adenyl cyclase
4 | O=S(=O)(c1cccc2ccccc12)n1cc(C2=CCN3CCCC3C2)c2cc(F)ccc21 (racemic) [Example 6y, 5-Fluoro-3-[(8a-R,S)-1,2,3,5,8,8a-hexahydro-7-indolizinyl]-1-(1-naphthalenesulfonyl)indole] | < 20 | < 20 | < 20 | > 80 | able to reverse the serotonin stimulation of adenyl cyclase
5 | O=S(=O)(c1ccc2ccccc2c1)n1cc(C2CCN3CCCC3C2)c2cc(F)ccc21 (single isomer, unassigned; isomer i) [Example 10a, 5-Fluoro-3-[(7R or 7S)(8a-R,S)-octahydrohydro-7-indolizinyl]-1-(2-naphthalenesulfonyl)indole,Isomer I] |  |  |  | > 80 | able to reverse the serotonin stimulation of adenyl cyclase
6 | O=S(=O)(c1ccccc1)n1cc(C2CCN3CCCC3C2)c2cc(F)ccc21 (single isomer, unassigned; isomer i) [Example 10c, 5-Fluoro-3-[(7R or 7S)(8a-R,S)-octahydrohydro-7-indolizinyl]-1-phenylsulfonylindole, Isomer I] |  |  |  | > 80 | able to reverse the serotonin stimulation of adenyl cyclase
7 | O=S(=O)(c1cccc2ccccc12)n1cc(C2CCN3CCCC3C2)c2cc(F)ccc21 (single isomer, unassigned; isomer i) [Example 10e, 5-Fluoro-3-[(7R or 7S)(8a-R,S)-octahydrohydro-7-indolizinyl]-1-(1-napthalenesulfonyl)indole, Isomer I] |  |  |  | > 80 | able to reverse the serotonin stimulation of adenyl cyclase
8 | O=S(=O)(c1ccc2ccccc2c1)n1cc(C2CCN3CCCC3C2)c2cc(F)ccc21 (single isomer, unassigned; isomer ii) [Example 10b, 5-Fluoro-3-[(7R or 7S)(8a-R,S)-octahydrohydro-7-indolizinyl]-1-(2-naphthalenesulfonyl)indole, Isomer II] | < 20 | < 20 | < 20 |  | able to reverse the serotonin stimulation of adenyl cyclase
9 | O=S(=O)(c1ccccc1)n1cc(C2CCN3CCCC3C2)c2cc(F)ccc21 (single isomer, unassigned; isomer ii) [Example 10d, 5-Fluoro-3-[(7R or 7S)(8a-R,S)-octahydrohydro-7-indolizinyl]-1-phenylsulfonylindole, Isomer II] |  |  |  |  | able to reverse the serotonin stimulation of adenyl cyclase
10 | O=S(=O)(c1cccc2ccccc12)n1cc(C2CCN3CCCC3C2)c2cc(F)ccc21 (single isomer, unassigned; isomer ii) [Example 10f, 5-Fluoro-3-[(7R or 7S)(8a-R,S)-octahydrohydro-7-indolizinyl]-1-(1-naphthalenesulfonyl)indole,Isomer II] | < 20 | < 20 | < 20 |  | able to reverse the serotonin stimulation of adenyl cyclase
